The source of these data is patent publication US20260198495A1, “BINARY INSECTICIDE COMPOSITION AND USE THEREOF” (SHENYANG SINOCHEM AGROCHEMICALS R & D CO., LTD., priority 2022, published 2026).

Broadly, the LC50 is the concentration that kills 50% of the test population. A word on the mortality: it is the percentage killed.

≈ marks a conversion by molar mass, not a printed value.

Common to all, as to format: in vivo
For data set [1], the system named is 2nd-instar larvae of Mythimna separata. In words: Joint toxicity of I-72 + beta-cyfluthrin, Example 41, Table 41. Particulars: Mythimna separata, foliar; A = compound I-72, B = beta-cyfluthrin; corn leaf dipping; 72 hours; read-out: LC50. On the procedure: Test target: 2nd-instar larvae of Mythimna separata.
(§1) Preparation of the pesticide solution: according to different test requirements, the test samples were accurately weighed respectively with an electronic analytical balance. The technical pesticides were dissolved in acetone, and then diluted with 0.1% Tween 80 water into a series of pesticide solutions with a certain concentration gradient according to the experimental design dosage.
Experimental method: first, corn leaves were selected and dipped in the prepared pesticide solution for 10 s in the order from low dosage to high dosage according to the experimental design. After natural air-drying in the shade, they were placed in a 9-cm-diameter Petri dish with filter paper, and uniform and healthy test insects were introduced, with 10 insects for each treatment and 3 replicates for each treatment. In addition, a blank control was set up.
(§2) The treated test materials were placed in an observation room, and the temperature, humidity and illumination of the observation room could be adjusted as needed. The number of dead and live insects was investigated 72 hours later. […] Then, the co-toxicity coefficient of each ratio was calculated using the Sun Y-P method to evaluate the mixing effect (the same as in Example 1).

Data set [2] has as its system 3rd-instar larvae of Yponomeuta evonymallus (Linnaeus). As to the kind of experiment: Synergism screening (Bliss) of I-72 + pyrethroid insecticides, Example 37, Table 37. Particulars: single pesticide, leaf dipping, 72 hours. Here is the method: Test target: 3rd-instar larvae of Yponomeuta evonymallus (Linnaeus).
as §1
Experimental method: Firstly, Hylotelephium spectabile leaves were selected and dipped into the prepared pesticide solutions for 10 s in the order from low dosage to high dosage according to the experimental design. After natural air-drying in the shade, they were placed in a 9-cm-diameter Petri dish with filter paper, and uniform and healthy test insects were introduced, with 10 insects for each treatment and 3 replicates for each treatment. In addition, a blank control (CK) was set up.
(§3) The treated test materials were placed in an observation room, and the temperature, humidity and illumination of the observation room could be adjusted as needed. The number of dead and alive insects was investigated 72 hours later, and the corrected mortality rate was calculated using the Abbott's formula.
The synergism of the mixture was evaluated by the Bliss method. According to the concept of independent joint action he proposed, Bliss believes that the theoretical mortality rate P when insecticides are used in combination can be calculated by the following formula: […]
Pm is the measured mortality rate (%) of the target when the first active ingredient is at a concentration of m; and Pn is the measured mortality rate (%) of the target when the second active ingredient is used at a concentration of n.
If the actual mortality rate of the target after the two active ingredients are mixed at a certain concentration is greater than theoretical mortality rate P, it is determined that the two active ingredients have a synergistic effect when used in combination at the set concentration, and otherwise, they have an antagonistic effect.

Data set [3] concerns 3rd-instar larvae of Ostrinia furnacalis Guenee. As to the kind of experiment: Joint toxicity of I-72 + lambda-cyhalothrin, Example 42, Table 42. Particulars: A = compound I-72, B = lambda-cyhalothrin, corn stem dipping, 72 hours, read-out: LC50. On the procedure: Test target: 3rd-instar larvae of Ostrinia furnacalis Guenee.
as §1
Experimental method: first, tender corn stems were selected and dipped in the prepared pesticide solution for 10 s in the order from low dosage to high dosage according to the experimental design. After natural air-drying in the shade, they were placed in a 9-cm-diameter Petri dish with filter paper, and uniform and healthy test insects were introduced, with 10 insects for each treatment and 3 replicates for each treatment. In addition, a blank control was set up.
as §2

For data set [4], the system named is 2nd-instar larvae of Chilo suppressalis (Walker). In words: whole plant or invertebrate. As to conditions: Chilo suppressalis; resistant 2nd-instar larvae, rice stalk spraying, 72 h; A = compound I-72, B = spinetoram; read-out: LC50. On the procedure:
In addition, a blank control was set up. The number of dead and live insects was investigated 72 hours later.

Data set [5] has as its system 3rd-instar larvae of Ostrinia furnacalis Guenee. As to the kind of experiment: Joint toxicity of I-72 + organophosphorus insecticides, corn stalk dipping, Example 21, Table 21. Particulars: 3rd-instar larvae, corn stalk dipping, 48 h, A = compound I-72, B = acephate, read-out: LC50. Here is the method: Test target: 3rd-instar larvae of Ostrinia furnacalis Guenee, a sensitive strain reared indoors.
as §1
Experimental method: first, fresh tender corn stalks cultivated in the greenhouse were selected, cut into small sections of 3 cm, and dipped in the prepared pesticide solution for 10 s in the order from low dosage to high dosage according to the experimental design. After natural air-drying in the shade, they were placed in a 9-cm-diameter Petri dish with filter paper, and uniform and healthy test insects were introduced, with 10 insects for each treatment and 3 replicates for each treatment. In addition, a blank control was set up.
The treated test materials were placed in an observation room, and the temperature, humidity and illumination of the observation room could be adjusted as needed. The number of dead and live insects was investigated 48 hours later. The corrected mortality rate was calculated using the Abbott's formula, and statistical analysis was performed with the DPS data processing software to obtain the toxicity regression equation, LC50 value and 95% confidence limit of each single test pesticide and each mixture of different ratios. Then, the co-toxicity coefficient of each ratio was calculated using the Sun Y-P method to evaluate the mixing effect (the same as in Example 1).

Data set [6] relates to Unaspis yanonensis Kuwana nymphs. In words: Joint toxicity of I-72 + afidopyropen, Example 76, Table 76. Particulars: Unaspis yanonensis, foliar; A = compound I-72, B = afidopyropen; citrus leaf dipping; 120 hours; read-out: LC50. On the procedure: Test target: Unaspis yanonensis Kuwana nymphs.
as §1
Experimental method: the activity of the mixture against Unaspis yanonensis Kuwana nymphs on citrus was determined by adopting the dipping method. First, the collected citrus leaves with Unaspis yanonensis Kuwana nymphs were treated with the pesticide solution in the order from low dosage to high dosage according to the experimental design. After air-drying, the petioles were kept moist with degreased cotton, and then the leaves were placed in a Petri dish, with 3 replicates for each treatment. In addition, a blank control was set up.
The treated test materials were placed in an observation room, and the temperature, humidity and illumination of the observation room could be adjusted as needed. The number of dead and live insects was investigated 120 hours later. […] Then, the co-toxicity coefficient of each ratio was calculated using the Sun Y-P method to evaluate the mixing effect (the same as in Example 1).

Data set [7] has as its system 2nd-instar larvae of Plutella xylostella. In words: Synergism screening (Bliss) of I-72 + insect attractants and insecticides, Example 49, Table 49. As to conditions: Plutella xylostella; single pesticide, 0.1 mg/L; 72 hours; read-out: Measured mortality rate. On the procedure:
Test target: 2nd-instar larvae of Plutella xylostella.
as §1
Experimental method: first, cabbage leaves were selected and dipped in the prepared pesticide solution for 10 s in the order from low dosage to high dosage according to the experimental design. After natural air-drying in the shade, they were placed in a 9-cm-diameter Petri dish with filter paper, and uniform and healthy test insects were introduced, with 10 insects for each treatment and 3 replicates for each treatment. In addition, a blank control CK was set up.
as §3
The synergism of the mixture was evaluated by adopting the Bliss method, as in Example 5.

For `CN(C(=O)c1ccc2c(c1)OC(F)(F)O2)c1cccc(C(=O)Nc2c(Br)cc(C(F)(C(F)(F)F)C(F)(F)F)cc2OC(F)F)c1F` [Compound I-72], the LC50 in data set [1] was 0.029 µg/mL; in data set [3], 0.805 µg/mL; in data set [4], 0.811 µg/mL (≈ 1.09 µM); in data set [5], 1.19 µg/mL; in data set [6], 75.4 µg/mL. Further, the “Measured mortality rate (%)” value in data set [2] (concentration 0.1 mg/L) is recorded as 11.1%; in data set [2] (concentration 5 mg/L) it was 57.1%. For the same molecule, the mortality at 0.1 µg/mL in data set [7] stood at 46.9%.
